Where a name gives a salt, the structure may show the parent alone.
Target: MASP-2 CCP2-SP (Homo sapiens (Human), UniProt O00187)
Assay: MASP-2 co-crystallization, X-ray crystallography and structure analysis (H-bonds, van der Waals contacts);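 for Ligand-pharmacophore element distance, pharmacophore element C2: distance from averaged pharmacophore element to bound ligand; missing value means element absent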;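 for Ligand-pharmacophore element distance, pharmacophore element C3: distance from averaged pharmacophore element to bound ligand; missing value means element absent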;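 for Ligand-pharmacophore element distance, pharmacophore element C4: distance from averaged pharmacophore element to bound ligand; missing value means element absent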;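 for Ligand-pharmacophore element distance, pharmacophore element C5: distance from averaged pharmacophore element to bound ligand; missing value means element absent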
Parameters: van der Waals contact distance, MASP-2 HIS 483 atom CD2 / van der Waals contact distance, MASP-2 HIS 483 atom NE2 / van der Waals contact distance, SER 654 C to compound atom / van der Waals contact distance, SER 654 O to compound atom / van der Waals contact distance, TRP 655 C to compound atom / van der Waals contact distance, MASP-2 GLY 528 atom CA / van der Waals contact distance TRP 655 atom CZ3 / van der Waals contact distance TRP 655 atom N / van der Waals contact distance TRP 655 atom CE3 / van der Waals contact distance GLY 656 atom C / van der Waals contact distance GLY 656 atom CA / van der Waals contact distance GLY 656 atom O / van der Waals contact distance, MASP-2 TYR 607 atom CD1 / van der Waals contact distance, MASP-2 PRO 606 atom O / d(C3,CA1) / d(CA1,N1)2 / d(H4,O1) / d(H4,O2) / d(O1,O2) / d(CA1,O2) / d(CA6,O1) / d(CA6,O2) / d(CA1,C5) / d(O2,H3) / d(N2,C2) / d(CA5,N2) / d(N2,C4) / d(N2,C6) / d(N2,CA3) / d(N2,O3) / d(O4,H2): unit not given beside the values
Conditions: for H-bond distance to MASP-2 ASP 627 atom OD2: ASP 627 OD2; for H-bond distance to MASP-2 GLY 656 atom N: GLY 656 N; for H-bond distance to MASP-2 SER 657 atom O: SER 657 O; for van der Waals contact distance SER 657 atom C: MASP-2 SER 657 C, columns c12-c13 (inferred); for H-bond distance to MASP-2 ASP 627 atom OD1: ASP 627 OD1; for H-bond distance to MASP-2 GLY 656 atom O: GLY 656 O; for H-bond distance to MASP-2 SER 654 atom O: SER 654 O
In short: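 First, CCP2-SP constructs with or without a 6His tag are produced in E. coli. Crystals are then soaked once or twice with inhibitor, cryoprotected in 20% glycerol or frozen directly, and diffracted at synchrotron beamlines. Phasing uses molecular replacement with parts of 1Q3X.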

[1] = Table A5-2 pharmacophore distance, S3/S4 region
[2] = Table A7-1, between pharmacophore elements of the bound compound
[3] = Table A2-5: TYR 607 (CE1, CE2, OH), PRO 608 (CD, CG), SER 611 (CA)
[4] = Table A2-9, ARG 630, AA atoms CG, CZ
[5] = Table A5-1 pharmacophore: distance between elements, S2/S1 region

MASP-2 CCP2-SP, sequence (O00187 445-686): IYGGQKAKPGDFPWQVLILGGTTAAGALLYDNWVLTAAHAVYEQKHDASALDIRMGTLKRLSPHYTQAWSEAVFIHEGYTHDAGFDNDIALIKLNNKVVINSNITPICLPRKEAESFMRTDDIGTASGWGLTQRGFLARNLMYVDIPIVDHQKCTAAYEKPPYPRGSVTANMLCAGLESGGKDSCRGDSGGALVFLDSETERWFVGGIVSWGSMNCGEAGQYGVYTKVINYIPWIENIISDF
MASP-2 CCP2-SP, sequence (O00187 364-432 partner): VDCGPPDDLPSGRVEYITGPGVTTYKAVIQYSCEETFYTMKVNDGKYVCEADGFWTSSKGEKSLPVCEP

In the case of `C[C@H](NC(=O)[C@H]1C[C@@H](c2ccccc2)CN1)C(=O)NCc1ccc(C(=N)N)cc1` [compound 1037], the “H-bond distance to MASP-2 ASP 627 atom OD2” value (Table A1 (H-Bonds)) is reported as 2.91, the “H-bond distance to MASP-2 GLY 656 atom N” value (Table A1 (H-Bonds)) is reported as 3.35 and the “H-bond distance to MASP-2 SER 657 atom O” value (Table A1 (H-Bonds)) is reported as 2.85. For the same compound, the “van der Waals contact distance, MASP-2 PHE 529 atom CE1” value (Table A2-3) was 3.27, the “van der Waals contact distance, MASP-2 PHE 529 atom CE2” value (Table A2-3) was 3.73 and the “van der Waals contact distance, MASP-2 PRO 606 atom C” value (Table A2-4) was 3.89. For the same compound, the “van der Waals contact distance, MASP-2 PRO 606 atom O” value (Table A2-4) was 3.73, the “van der Waals contact distance GLY 656 atom C” value (Table A2-13, MASP-2 GLY 656 C) was 3.7 and the “van der Waals contact distance TRP 655 atom O” value (Table A2-13, MASP-2 TRP 655 O) was 3.25. For the same compound, the “van der Waals contact distance GLY 656 atom N” value (Table A2-14, MASP-2 GLY 656 N) was 3.86, the “van der Waals contact distance SER 657 atom C” value (Table A2-14) was 3.73 and the “Ligand-pharmacophore element distance, pharmacophore element C2” value (Table A4-1) was 0. The “Ligand-pharmacophore element distance, pharmacophore element C3” value (Table A4-1) was 0, the “Ligand-pharmacophore element distance, pharmacophore element C4” value (Table A4-1) was 0 and the “Ligand-pharmacophore element distance, pharmacophore element C5” value (Table A4-1) was 0. For the same compound, the “Ligand-pharmacophore element distance, pharmacophore element C6” value (Table A4-1) was 0, the “Ligand-pharmacophore element distance, pharmacophore element C7” value (Table A4-1) was 0 and the “Ligand-pharmacophore element distance, pharmacophore element CA1” value (Table A4-1) was 0.27. For the same compound, the “Ligand-pharmacophore element distance, pharmacophore element CA2” value (Table A4-1) was 0, the “Ligand-pharmacophore element distance, pharmacophore element CA3” value (Table A4-1) was 0 and the “Ligand-pharmacophore element distance, pharmacophore element CA4” value (Table A4-1) was 0. For the same compound, the “Ligand-pharmacophore element distance, pharmacophore element CA6” value (Table A4-1) was 0, the “d(O2,H3)” value [1] was 3.99 and the “Pharmacophore torsion angle a(H4, O1, O2, H3)” value [2] was 57.29. For the same compound, the “Pharmacophore torsion angle a(N1, CA1, O2, H4)” value [2] was −92.49, the “Pharmacophore protein distance to MET_658 (first MET_658 column)” value (Table A8-6, 6th residue column, nearest protein atom in cell to the left) was 2.38 and the “Pharmacophore protein distance to MET_658 (second MET_658 column)” value (Table A8-6, 9th residue column, nearest protein atom in cell to the left) was 3.03. The “Pharmacophore protein distance to SER_611” value (Table A8-6, nearest protein atom in cell to the left) was 2.19.

For `C[C@H](NC(=O)[C@H](N)CCCc1ccccc1)C(=O)NCc1ccc(C(=N)N)cc1` [compound 1042], the “H-bond distance to MASP-2 ASP 627 atom OD1” value (Table A1 (H-Bonds)) was 3.32, the “H-bond distance to MASP-2 GLY 656 atom O” value (Table A1 (H-Bonds)) was 2.34 and the “H-bond distance to MASP-2 SER 628 atom O” value (Table A1 (H-Bonds), SER 628 O) was 2.74. The “H-bond distance to MASP-2 SER 657 atom O” value (Table A1 (H-Bonds)) was 2.65, the “van der Waals contact distance, MASP-2 HIS 483 atom NE2” value (Table A2-1) was 3.56 and the “van der Waals contact distance, MASP-2 PHE 529 atom CZ” value (Table A2-3) was 3.57. For the same compound, the “van der Waals contact distance, SER 654 C to compound atom” value (Table A2-11) was 3.36 and the “van der Waals contact distance, TRP 655 C to compound atom” value (Table A2-12) was 3.57.

With `N=C(N)c1ccc(CNC(=O)C(CF)NC(=O)[C@H](N)CCc2ccccc2)cc1` (stereo partly drawn) [compound 1050, (2R)-2-Amino-N-(1-((4-carbamimidoylbenzyl)amino)-3-fluoro-1-oxopropan-2-yl)-4-phenylbutanamide Dihydrochloride] the “H-bond distance to MASP-2 GLY 656 atom N” value (Table A1 (H-Bonds)) was 3.18, the “H-bond distance to MASP-2 GLY 656 atom O” value (Table A1 (H-Bonds)) was 2.58 and the “H-bond distance to MASP-2 SER 654 atom O” value (Table A1 (H-Bonds)) was 3.03. The “H-bond distance to MASP-2 SER 657 atom O” value (Table A1 (H-Bonds)) was 2.86, the “van der Waals contact distance, MASP-2 PHE 529 atom CD1” value (Table A2-3) was 3.61 and the “van der Waals contact distance, MASP-2 PHE 529 atom CE1” value (Table A2-3) was 3.56. For the same compound, the “van der Waals contact distance, MASP-2 PHE 529 atom CZ” value (Table A2-3) was 3.88, the “van der Waals contact distance, MASP-2 amino acid atom to compound atom” value [3] was 3.68 and the “van der Waals contact distance, MASP-2 amino acid atom to compound atom” value [4] was 3.66. For the same compound, the “van der Waals contact distance, MASP-2 amino acid atom to compound atom” value (Table A2-9 second part, ARG 630, AA atoms N, NE, NH1) was 3.66, the “van der Waals contact distance, VAL 653 CG1 to compound atom” value (Table A2-11) was 3.74 and the “van der Waals contact distance, SER 654 O to compound atom” value (Table A2-12) was 3.72. For the same compound, the “van der Waals contact distance TRP 655 atom CZ3” value (Table A2-13, MASP-2 TRP 655 CZ3) was 3.81, the “van der Waals contact distance TRP 655 atom N” value (Table A2-13, MASP-2 TRP 655 N) was 3.74 and the “Ligand-pharmacophore element distance, pharmacophore element C2” value (Table A4-1) was 6.95. The “Ligand-pharmacophore element distance, pharmacophore element C3” value (Table A4-1) was 0, the “Ligand-pharmacophore element distance, pharmacophore element C4” value (Table A4-1) was 0 and the “Ligand-pharmacophore element distance, pharmacophore element C5” value (Table A4-1) was 0. The “Ligand-pharmacophore element distance, pharmacophore element C6” value (Table A4-1) was 0, the “Ligand-pharmacophore element distance, pharmacophore element C7” value (Table A4-1) was 0 and the “Ligand-pharmacophore element distance, pharmacophore element CA1” value (Table A4-1) was 0.57. For the same compound, the “Ligand-pharmacophore element distance, pharmacophore element CA2” value (Table A4-1) was 0.33, the “Ligand-pharmacophore element distance, pharmacophore element CA3” value (Table A4-1) was 0 and the “Ligand-pharmacophore element distance, pharmacophore element CA4” value (Table A4-1) was 0. For the same compound, the “Ligand-pharmacophore element distance, pharmacophore element CA5” value (Table A4-1, element CA5) was 0, the “Ligand-pharmacophore element distance, pharmacophore element CA6” value (Table A4-1) was 0 and the “d(CA1,N1)” value [5] was 3.47. For the same compound, the “d(CA1,O1)” value [5] was 4.10, the “d(CA1,O2)” value [5] was 4.29 and the “d(H4,O1)” value [5] was 4.58. The “d(H4,O2)” value [5] was 4.38, the “d(O1,O2)” value [5] was 3.01 and the “d(N2,C2)” value [1] was 6.69. The “d(N2,CA2)” value [1] was 5.73, the “d(O2,H3)” value [1] was 2.72 and the “d(O2,N2)” value [1] was 2.76. The “a(CA1, O1, O2)” value (Table A6-1 pharmacophore angle) was 114.34, the “a(O1, O2, H4)” value (Table A6-1 pharmacophore angle) was 140.76 and the “A(N1, CA1, O1) a)” value (Table A6-1 pharmacophore angle, all compounds with protonatable center N1 except Methyl-amino-pyridine) was 160.78. The “a(O1, O2, H3)” value (Table A6-2 pharmacophore angle) was 137.51, the “a(O1, O2, N2)” value (Table A6-2 pharmacophore angle) was 140.97 and the “a(O2, N2, C2)” value (Table A6-2 pharmacophore angle) was 159.29. The “a(O2, N2, CA2)” value (Table A6-2 pharmacophore angle) was 153.66, the “Pharmacophore torsion angle a(H4, O1, O2, H3)” value [2] was 102.21 and the “Pharmacophore torsion angle a(H4, O1, O2, N2)” value [2] was 123.45. For the same compound, the “Pharmacophore torsion angle a(N1, CA1, O2, H4)” value [2] was −131.38, the “Pharmacophore torsion angle a(O1, H4, O2, CA1)” value [2] was −58.32 and the “Pharmacophore torsion angle a(O1, O2, N2, C2)” value [2] was 66.94. For the same compound, the “Pharmacophore torsion angle a(O1, O2, N2, CA2)” value (Table A7-2, between pharmacophore elements of the bound compound) was 147.29.

`C[C@H](NC(=O)[C@H]1C[C@@H](c2ccccc2)CCN1)C(=O)NCc1cc(Cl)ccc1O` [compound 1078] was tested, and the “H-bond distance to MASP-2 ARG 630 atom NH1 (second bond)” value (Table A1 (H-Bonds), ARG 630 NH1) was 3.25, the “H-bond distance to MASP-2 ARG 630 atom NH1” value (Table A1 (H-Bonds), ARG 630 NH1, first column) was 2.92 and the “H-bond distance to MASP-2 GLY 656 atom N” value (Table A1 (H-Bonds)) was 3.14. For the same compound, the “H-bond distance to MASP-2 SER 654 atom O” value (Table A1 (H-Bonds)) was 2.66, the “van der Waals contact distance, MASP-2 HIS 483 atom CD2” value (Table A2-1) was 3.35 and the “van der Waals contact distance, MASP-2 HIS 483 atom NE2” value (Table A2-1) was 3.28. For the same compound, the “van der Waals contact distance, MASP-2 amino acid atom to compound atom” value [4] was 3.78 and the “van der Waals contact distance, VAL 653 CG1 to compound atom” value (Table A2-11) was 3.49.

For `C[C@H](NC(=O)[C@H](N)C1Cc2ccccc2C1)C(=O)NCc1ccc2c(N)nccc2c1` [compound 1088, (S)-2-((R)-2-Amino-2-(2,3-dihydro-1H-inden-2-yl)acetamido)-N-((1-aminoisoquinolin-6-yl)methyl)propanamide Dihydrochloride], the “H-bond distance to MASP-2 ASP 627 atom OD1” value (Table A1 (H-Bonds)) was 2.91, the “H-bond distance to MASP-2 ASP 627 atom OD2” value (Table A1 (H-Bonds)) was 3.16 and the “H-bond distance to MASP-2 GLY 656 atom N” value (Table A1 (H-Bonds)) was 3.22. For the same compound, the “H-bond distance to MASP-2 SER 628 atom OG” value (Table A1 (H-Bonds), SER 628 OG) was 3.16, the “H-bond distance to MASP-2 SER 654 atom O” value (Table A1 (H-Bonds)) was 2.89 and the “van der Waals contact distance, MASP-2 PRO 606 atom C” value (Table A2-4) was 3.89. For the same compound, the “van der Waals contact distance, MASP-2 TYR 607 atom CD1” value (Table A2-4) was 3.82, the “van der Waals contact distance, MASP-2 amino acid atom to compound atom” value [3] was 3.73 and the “van der Waals contact distance, MASP-2 amino acid atom to compound atom” value [4] was 3.79. The “van der Waals contact distance SER 657 atom C” value (Table A2-14) was 3.64.
